Square brackets hold non-standard residues; d marks the D form. Peptide text beside a SMILES is read from it. * marks the point of attachment. Orn = NCCC[C@H](N)C(=O)O; Hexanoyl = CCCCCC(=O)*; Aib = CC(C)(N)C(=O)O
Assays:
human VPAC2 [1] = biological target: T1, human VPAC2 (Homo sapiens, UniProt P41587); test: Alpha screen cAMP assay, in vitro potency at human VPAC2 receptor; format: cell-based; conditions: cAMP generation; single result from two analyses in a single run, some values average of more than one experiment
T1 construct: expressed in transfected cells
T1 sequence (P41587 24-438): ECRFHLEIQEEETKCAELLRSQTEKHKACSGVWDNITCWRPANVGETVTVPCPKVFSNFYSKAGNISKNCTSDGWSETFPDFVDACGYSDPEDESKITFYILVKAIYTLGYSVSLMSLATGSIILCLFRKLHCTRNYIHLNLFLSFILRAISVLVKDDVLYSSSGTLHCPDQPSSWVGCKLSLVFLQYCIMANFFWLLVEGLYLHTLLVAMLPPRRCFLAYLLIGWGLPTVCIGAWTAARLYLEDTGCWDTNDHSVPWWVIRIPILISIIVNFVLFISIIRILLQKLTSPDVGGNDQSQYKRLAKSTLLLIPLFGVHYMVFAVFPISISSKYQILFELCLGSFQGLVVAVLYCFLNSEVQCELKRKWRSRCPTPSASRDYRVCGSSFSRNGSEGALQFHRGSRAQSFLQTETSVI

rat VPAC2 receptor = biological target: T2, rat VPAC2 receptor (Rattus norvegicus, UniProt P35000); test: DiscoveRx cAMP assay, in vitro potency at rat VPAC2 receptor; format: cell-based; conditions: CHO-PO cells transiently transfected with rat VPAC2; cAMP generation; mean of two independent runs
T2 construct: expressed in transfected cells; host or cells: CHO-PO (transient, Lipofectamine)
T2 sequence (P35000 23-437): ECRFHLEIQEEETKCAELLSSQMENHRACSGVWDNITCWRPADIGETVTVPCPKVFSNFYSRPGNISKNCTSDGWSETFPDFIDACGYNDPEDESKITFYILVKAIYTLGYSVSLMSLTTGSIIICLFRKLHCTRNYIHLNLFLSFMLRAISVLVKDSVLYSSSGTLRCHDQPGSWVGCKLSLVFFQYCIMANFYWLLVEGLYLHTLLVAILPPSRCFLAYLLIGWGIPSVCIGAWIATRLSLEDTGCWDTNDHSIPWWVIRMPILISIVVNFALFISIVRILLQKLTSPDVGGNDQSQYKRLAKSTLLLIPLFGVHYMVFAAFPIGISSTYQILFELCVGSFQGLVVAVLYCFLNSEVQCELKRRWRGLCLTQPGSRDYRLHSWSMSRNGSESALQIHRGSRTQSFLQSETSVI
Procedure: (§1) DiscoveRx: CHO-PO cells are transiently transfected with rat VPAC1 or VPAC2 receptor DNA using commercially available transfection reagents (Lipofectamine from Invitrogen). The cells are seeded at a density of 10,000/well in a 96-well plate and are allowed to grow for 3 days in […] culture medium. At day 3, the assay is performed.
(§2) On the day of the experiment, the medium is removed. Also, the cells are washed twice. The cells are incubated in assay buffer plus IBMX for 15 minutes at room temperature. Afterwards, the stimuli are added and are dissolved in assay buffer. The stimuli are present for 30 minutes. Then, the assay buffer is gently removed. The cell lysis reagent of the DiscoveRx cAMP kit is added. Thereafter, the standard protocol for developing the cAMP signal as described by the manufacturer is used (DiscoveRx Inc., USA). EC50 values for cAMP generation are calculated from the raw signal or are based on absolute cAMP levels as determined by a standard curve performed on each plate.
(§3) Results for each agonist are the mean of two independent runs. Rat VPAC1 and VPAC2 results are only generated using the DiscoveRx assay.

human PAC1 = biological target: T3, human PAC1 (Homo sapiens, UniProt P41586); test: Filter binding assay, 125I-labeled PACAP-27 tracer, PAC1 membranes; conditions: read-out: Human PAC1 Receptor Binding (IC50; nM)
T3 construct: expressed in transfected cells
T3 sequence (P41586 21-468): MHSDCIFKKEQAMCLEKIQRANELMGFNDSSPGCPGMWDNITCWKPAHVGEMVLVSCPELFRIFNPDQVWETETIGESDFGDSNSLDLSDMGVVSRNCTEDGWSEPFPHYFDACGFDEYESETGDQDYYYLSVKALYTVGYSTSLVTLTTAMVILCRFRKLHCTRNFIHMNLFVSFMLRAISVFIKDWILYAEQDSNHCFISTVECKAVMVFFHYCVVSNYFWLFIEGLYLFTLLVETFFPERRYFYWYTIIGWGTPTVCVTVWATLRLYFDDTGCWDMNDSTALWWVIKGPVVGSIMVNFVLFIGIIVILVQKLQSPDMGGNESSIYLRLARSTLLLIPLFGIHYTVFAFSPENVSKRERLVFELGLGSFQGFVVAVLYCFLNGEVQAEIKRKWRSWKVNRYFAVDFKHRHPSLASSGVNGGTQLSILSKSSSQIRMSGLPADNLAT

[2] = Rat serum stability (activity remaining, CHO-VPAC2 DiscoveRx read-out); format: in vitro ADME
Summary of the method: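 Peptides preincubated overnight in rat serum at 37 °C without aprotinin versus 4 °C with aprotinin, then tested as 11-point 5× dilutions in duplicate on CHO-VPAC2 cells, 30 min at RT. cAMP measured by DiscoveRx kit against standards; EC50 derived for each aliquot.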

human VPAC2 [3] = biological target: T1, human VPAC2; test: Filter binding assay, 125I-labeled VIP tracer, VPAC2 membranes; conditions: read-out: Human VPAC2 Receptor Binding (IC50; nM)
human VPAC1 = biological target: T4, human VPAC1 (Homo sapiens, UniProt P32241); test: Filter binding assay, 125I-labeled VIP tracer, VPAC1 membranes; conditions: read-out: Human VPAC1 Receptor Binding (IC50; nM)
T4 construct: expressed in transfected cells
T4 sequence (P32241 31-457): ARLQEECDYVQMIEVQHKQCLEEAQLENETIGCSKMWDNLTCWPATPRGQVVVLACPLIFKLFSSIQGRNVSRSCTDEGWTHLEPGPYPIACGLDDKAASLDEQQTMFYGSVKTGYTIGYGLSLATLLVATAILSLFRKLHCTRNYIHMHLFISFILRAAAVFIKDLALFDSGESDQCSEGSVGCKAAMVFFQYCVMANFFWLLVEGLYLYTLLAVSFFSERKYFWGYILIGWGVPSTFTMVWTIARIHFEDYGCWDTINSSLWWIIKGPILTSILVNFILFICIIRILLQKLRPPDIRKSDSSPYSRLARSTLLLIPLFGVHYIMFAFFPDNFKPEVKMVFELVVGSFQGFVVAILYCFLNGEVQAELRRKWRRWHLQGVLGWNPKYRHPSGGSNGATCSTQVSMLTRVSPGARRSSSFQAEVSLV
Procedure: For this assay, the solutions and equipment include:
Presoak solution: 0.5% Polyethyleneamine in Aqua dest
Buffer for flushing filter plates: 25 mM HEPES pH 7.4
Blocking buffer: 25 mM HEPES pH 7.4; 0.2% protease free BSA
Assay buffer: 25 mM HEPES pH 7.4; 0.5% protease free BSA
Dilution and assay plate: PS-Microplate, U form
Filtration Plate: Multiscreen FB Opaque Plate; 1.0 μM Type B Glasfiber filter
In order to prepare the filter plates, the presoak solution is aspirated by vacuum filtration. The plates are flushed twice with 200 μL flush buffer. 200 μL blocking buffer is added to the filter plate. The filter plate is then incubated with 200 μL presoak solution for 1 hour at room temperature.
The assay plate is filled with 25 μL assay buffer, 25 μL membranes (2.5 μg) suspended in assay buffer, 25 μL compound (agonist) in assay buffer, and 25 μL tracer (about 40000 cpm) in assay buffer. The filled plate is incubated for 1 hour with shaking.
The transfer from assay plate to filter plate is conducted. The blocking buffer is aspirated by vacuum filtration and washed two times with flush buffer. 90 μL is transferred from the assay plate to the filter plate. The 90 μL transferred from assay plate is aspirated and washed three times with 200 μL flush buffer. The plastic support is removed. It is dried for 1 hour at 60° C. 30 μL Microscint is added. The count is performed.

rat VPAC1 receptor = biological target: T5, rat VPAC1 receptor (Rattus norvegicus, UniProt P30083); test: DiscoveRx cAMP assay, in vitro potency at rat VPAC1 receptor; format: cell-based; conditions: CHO-PO cells transiently transfected with rat VPAC1; cAMP generation; mean of two independent runs
T5 construct: expressed in transfected cells; host or cells: CHO-PO (transient, Lipofectamine)
T5 sequence (P30083 31-459): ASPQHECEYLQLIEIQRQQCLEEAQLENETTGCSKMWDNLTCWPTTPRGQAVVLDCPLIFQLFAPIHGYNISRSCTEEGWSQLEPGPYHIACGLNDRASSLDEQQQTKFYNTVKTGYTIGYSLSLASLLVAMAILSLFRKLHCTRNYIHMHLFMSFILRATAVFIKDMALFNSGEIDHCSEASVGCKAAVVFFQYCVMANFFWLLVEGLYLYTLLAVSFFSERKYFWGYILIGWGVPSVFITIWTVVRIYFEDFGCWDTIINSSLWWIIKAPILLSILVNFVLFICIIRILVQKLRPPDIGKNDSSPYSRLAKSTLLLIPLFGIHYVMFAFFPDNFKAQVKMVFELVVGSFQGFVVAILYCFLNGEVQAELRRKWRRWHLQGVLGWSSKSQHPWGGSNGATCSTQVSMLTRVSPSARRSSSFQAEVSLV
Procedure: as §1, §2, §3

## CCCCCC(=O)N[C@@H](Cc1c[nH]cn1)C(=O)N[C@@H](CO)C(=O)N[C@@H](CC(=O)O)C(=O)N[C@@H](C)C(=O)N[C@H](C(=O)N[C@@H](Cc1ccccc1)C(=O)N[C@H](C(=O)N[C@@H](CC(=O)O)C(=O)N[C@@H](CCC(N)=O)C(=O)N[C@@H](Cc1ccc(O)cc1)C(=O)N[C@H](C(=O)N[C@@H](CCCN)C(=O)N[C@@H](CC(C)C)C(=O)N[C@@H](CCCNC(=N)N)C(=O)NC(C)(C)C(=O)N[C@@H](CCC(N)=O)C(=O)N[C@H](C(=O)N[C@@H](C)C(=O)N[C@@H](C)C(=O)NC(C)(C)C(=O)N[C@@H](CCCN)C(=O)N[C@@H](Cc1ccc(O)cc1)C(=O)N[C@@H](CC(C)C)C(=O)N[C@@H](CCC(N)=O)C(=O)N[C@@H](CO)C(=O)N[C@H](C(=O)N[C@@H](CCCN)C(=O)N[C@@H](CCCN)C(=O)NCC(=O)NCC(=O)N1CCC[C@H]1C(=O)N[C@@H](CO)C(=O)N[C@@H](CO)C(=O)NCC(=O)N[C@@H](C)C(=O)N1CCC[C@H]1C(=O)N1CCC[C@H]1C(=O)N1CCC[C@H]1C(=O)N[C@@H](CO)C(=O)O)[C@@H](C)CC)C(C)C)[C@@H](C)O)[C@@H](C)O)C(C)C [Agonist P396] (Hexanoyl-HSDAVFTDQYT[Orn]LR[Aib]QVAA[Aib][Orn]YLQSI[Orn][Orn]GGPSSGAPPPS-OH; C-terminus assumed)
Human VPAC2 [1]
  EC50: 0.11 nM
Rat VPAC2 receptor
  EC50: 0.05 nM
Human PAC1
  IC50: > 25000 nM
[2]
  Rat Serum Stability (estimated purity in % after overnight incub.): 93.07%
Human VPAC2 [3]
  IC50: 0.26 nM
Human VPAC1
  IC50: > 3000 nM

## CCCCCC(=O)N[C@@H](Cc1c[nH]cn1)C(=O)N[C@@H](CO)C(=O)N[C@@H](CC(=O)O)C(=O)N[C@@H](C)C(=O)N[C@H](C(=O)N[C@@H](Cc1ccccc1)C(=O)N[C@H](C(=O)N[C@@H](CC(=O)O)C(=O)N[C@@H](CC(N)=O)C(=O)N[C@@H](Cc1ccc(O)cc1)C(=O)N[C@H](C(=O)N[C@@H](CCCN)C(=O)N[C@@H](CC(C)C)C(=O)N[C@@H](CCCNC(=N)N)C(=O)NC(C)(C)C(=O)N[C@@H](CCC(N)=O)C(=O)N[C@H](C(=O)N[C@@H](C)C(=O)N[C@@H](C)C(=O)NC(C)(C)C(=O)N[C@@H](CCCCN)C(=O)N[C@@H](Cc1ccc(O)cc1)C(=O)N[C@@H](CO)C(=O)N[C@@H](CCC(N)=O)C(=O)N[C@@H](CO)C(=O)N[C@H](C(=O)N[C@@H](CCCN)C(=O)N[C@@H](CC(N)=O)C(=O)N[C@@H](CCCN)C(=O)NCC(=O)NCC(=O)N1CCC[C@H]1C(=O)N[C@@H](CO)C(=O)N[C@@H](CO)C(=O)NCC(=O)N[C@@H](C)C(=O)N1CCC[C@H]1C(=O)N1CCC[C@H]1C(=O)N1CCC[C@H]1C(=O)N[C@@H](CO)C(=O)O)[C@@H](C)CC)C(C)C)[C@@H](C)O)[C@@H](C)O)C(C)C [Agonist P384] (Hexanoyl-HSDAVFTDNYT[Orn]LR[Aib]QVAA[Aib]KYSQSI[Orn]N[Orn]GGPSSGAPPPS-OH; C-terminus assumed)
Human PAC1
  IC50: > 25000 nM
Rat VPAC1 receptor
  EC50: > 600 nM
[2]
  Rat Serum Stability (estimated purity in % after overnight incub.): 96.45%
Human VPAC1
  IC50: > 3000 nM

## CCCCCC(=O)N[C@@H](Cc1c[nH]cn1)C(=O)N[C@@H](CO)C(=O)N[C@@H](CC(=O)O)C(=O)N[C@@H](C)C(=O)N[C@H](C(=O)N[C@@H](Cc1ccccc1)C(=O)N[C@H](C(=O)N[C@@H](CC(=O)O)C(=O)N[C@@H](CCC(N)=O)C(=O)N[C@@H](Cc1ccc(OC)cc1)C(=O)N[C@H](C(=O)N[C@@H](CCCN)C(=O)N[C@@H](CC(C)C)C(=O)N[C@@H](CCCNC(=N)N)C(=O)NC(C)(C)C(=O)N[C@@H](CCC(N)=O)C(=O)N[C@@H](CC(C)C)C(=O)N[C@@H](C)C(=O)N[C@@H](C)C(=O)NC(C)(C)C(=O)N[C@@H](CCCN)C(=O)N[C@@H](Cc1ccc(O)cc1)C(=O)N[C@@H](CC(C)C)C(=O)N[C@@H](CCC(N)=O)C(=O)N[C@@H](CO)C(=O)N[C@H](C(=O)N[C@@H](CCCN)C(=O)N[C@@H](CCCN)C(=O)NCC(=O)NCC(=O)N1CCC[C@H]1C(=O)N[C@@H](CO)C(=O)N[C@@H](CO)C(=O)NCC(=O)N[C@@H](C)C(=O)N1CCC[C@H]1C(=O)N1CCC[C@H]1C(=O)N1CCC[C@H]1C(=O)N[C@@H](CO)C(=O)O)[C@@H](C)CC)[C@@H](C)O)[C@@H](C)O)C(C)C [Agonist P394] (Hexanoyl-HSDAVFTDQY(Me)T[Orn]LR[Aib]QLAA[Aib][Orn]YLQSI[Orn][Orn]GGPSSGAPPPS-OH; C-terminus assumed)
Human VPAC2 [1]
  EC50: 0.11 nM
Rat VPAC2 receptor
  EC50: 0.03 nM
Human PAC1
  IC50: > 25000 nM
Rat VPAC1 receptor
  EC50: 0.48 nM

— patent publication US20080194482A1, “Selective Apac2 Receptor Peptide Agonists” (priority 2005, published 2008)
